According to patent US10272133B2, “Compositions and methods for treating and preventing hyperlipidemia, fatty liver, atherosclerosis and other disorders associated with metabolic syndrome” (VANDERBILT UNIVERSITY, priority 2011, dated 2019):
In brackets after ≈: the same amount, converted by molar mass. Read-outs that look alike come from different tables or passages of the source. Each block holds one compound with its values, some of them ahead of it. Bridge positions count the residues as written; N and C are the ends. Ends that are not written are not given here. Peptide text beside a SMILES is read from it.

Assays:
Solubility of peptides = format: physicochemical
ldlr−/− mice = assay: General safety in ldlr-/- mice (blood cells, blood chemistries, infection); format: in vivo, mouse
Experimental: Six week old B6.129S7-Ldlrtm1Her/J female mice were purchased from Jackson Laboratories. Mice were fed a Western diet containing 21% milk fat and 0.15% cholesterol and maintained according to the guidelines for use and care of laboratory animals approved by the Vanderbilt University Institutional Animal Care and Use Committee. Mice and food were weighed at the beginning and end of each experiment. Blood chemistries were determined in fasting mouse plasma using an automated chemistry analyzer in the Vanderbilt Clinical Research Center. Total cholesterol and triglycerides in liver and cholesterol in feces were analyzed by standard methods in the Lipid Core Laboratory. Complete blood cell counts were performed in the Clinical Hematology Laboratory and flow cytometry analysis of lymphocytes subsets was. Cryostat sections of livers were stained with Oil-red-O. Atherosclerotic lesions and macrophages were analyzed in the aortic root by staining with Oil-red-O and MOMA-2, respectively. Average lesion area was determined using Imaging System KS300 2.0.

importin beta [1] = target: T1, importin beta (Homo sapiens, UniProt Q14974); assay: Importins pull-down assay, Jurkat T cell extract; format: binding; parameters: whole cell extract from unstimulated human Jurkat T cells; endogenous in cells; host or cells: human Jurkat T cells, whole-cell extract; conditions: biotinylated peptide, Jurkat T cell lysate pull-down
T1 sequence (Q14974 whole entry): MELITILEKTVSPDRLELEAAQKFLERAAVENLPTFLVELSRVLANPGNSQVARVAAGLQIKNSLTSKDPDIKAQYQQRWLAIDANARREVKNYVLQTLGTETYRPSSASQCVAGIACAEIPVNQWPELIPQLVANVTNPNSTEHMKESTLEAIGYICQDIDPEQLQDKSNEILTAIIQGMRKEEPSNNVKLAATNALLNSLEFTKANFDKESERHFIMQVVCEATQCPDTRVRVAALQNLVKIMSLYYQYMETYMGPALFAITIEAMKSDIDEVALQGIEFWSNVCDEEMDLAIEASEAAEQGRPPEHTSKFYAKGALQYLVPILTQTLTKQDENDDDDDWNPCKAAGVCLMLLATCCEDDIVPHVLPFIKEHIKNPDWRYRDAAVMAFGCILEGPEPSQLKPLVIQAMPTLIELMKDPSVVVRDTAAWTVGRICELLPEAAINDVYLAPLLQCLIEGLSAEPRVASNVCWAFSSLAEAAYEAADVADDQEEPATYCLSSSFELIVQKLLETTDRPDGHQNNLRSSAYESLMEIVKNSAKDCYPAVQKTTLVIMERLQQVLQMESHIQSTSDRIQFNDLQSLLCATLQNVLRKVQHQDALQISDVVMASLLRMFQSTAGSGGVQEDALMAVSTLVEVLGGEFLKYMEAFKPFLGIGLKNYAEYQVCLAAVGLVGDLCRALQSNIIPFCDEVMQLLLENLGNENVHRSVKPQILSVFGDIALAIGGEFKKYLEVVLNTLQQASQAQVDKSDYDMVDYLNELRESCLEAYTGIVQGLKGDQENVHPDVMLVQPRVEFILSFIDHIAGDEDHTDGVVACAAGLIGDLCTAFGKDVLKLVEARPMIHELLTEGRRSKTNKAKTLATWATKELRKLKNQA
Experimental: (§1) Cell-penetrating peptide cSN50.1 (2986 Da) and other peptides listed in Table 1 were synthesized and prepared as previously described (Liu, D., et al., (2009) Mol Ther 17, 796-802). Biotinylated NTM peptides and their constituent modules were prepared in the same manner, with biotin added to the amino terminus at the last step of synthesis. When necessary, a 5-7 hydrophilic amino acid tag was added to peptide modules to facilitate solubility. For i.p. administration, 200 μl aliquots containing 0.4 or 0.7 mg of cSN50.1 in saline was injected at 8 h or 12 h intervals. Alternatively, 10 mg cSN50.1 in 100 μl sterile H2O was administered subcutaneously from ALZET Osmotic Pumps (1007D) placed aseptically in interscapular areas. A bolus of 0.7 mg cSN50.1 in 100 μl saline was administered i.p. at weekly pump changes to assure steady NTM bioavailability. Dosage schedules were developed based on previous experimental protocols and half-life studies. Control mice received sterile saline in the same volumes as NTM. Importins pull-down assay. Ten nmols of biotinylated NTM peptides or their constituent modules depicted in Table 1 (SN50, cSN50.1, N50, cN50.1, SSHR-1, SSHR-2) were incubated overnight at 4° C. with 1.5 mg of whole cell extract from unstimulated human Jurkat T cells or serum-starved human HepG2 cells lysed in binding buffer (10 mM HEPES at pH 7.9, 150 mM NaCl, 10 mM KCl, 2.5 mM MgCl2, 1 mM EGTA, 1 mM DTT, 0.1% NP-40, 1% protease inhibitor cocktail). Lysate was cleared by centrifugation (16,000×g for 30 min at 4° C.) and transferred to a fresh tube containing high capacity Neutravidin beads (Thermo Scientific). After 4 h, beads were separated from lysate/peptide mixture by centrifugation (30 s at 1,000×g) and washed 3 times with binding buffer and 2 times with PBS. Beads were boiled for 10 min in SDS loading buffer, and protein content was analyzed by immunoblotting with a panel of anti-importins alpha and beta antibodies and anti-GAPDH (Abcam) as a cellular protein control.

[2] = test system: importins alpha 1, 4, and 5; assay: Importins pull-down assay, Jurkat T cell extract; format: binding, human; conditions: biotinylated peptide, Jurkat T cell lysate pull-down
Experimental: as §1

[3] = test system: ldlr−/− mice fed a Western diet; assay: Hyperlipidemia, fatty liver, hyperglycemia and weight gain in ldlr-/- mice fed a Western diet; format: in vivo, mouse
Experimental: (§2) Cell-penetrating peptide cSN50.1 (2986 Da) and other peptides listed in Table 1 were synthesized and prepared as previously described (Liu, D., et al., (2009) Mol Ther 17, 796-802). Biotinylated NTM peptides and their constituent modules were prepared in the same manner, with biotin added to the amino terminus at the last step of synthesis. When necessary, a 5-7 hydrophilic amino acid tag was added to peptide modules to facilitate solubility. For i.p. administration, 200 μl aliquots containing 0.4 or 0.7 mg of cSN50.1 in saline was injected at 8 h or 12 h intervals. Alternatively, 10 mg cSN50.1 in 100 μl sterile H2O was administered subcutaneously from ALZET Osmotic Pumps (1007D) placed aseptically in interscapular areas. A bolus of 0.7 mg cSN50.1 in 100 μl saline was administered i.p. at weekly pump changes to assure steady NTM bioavailability. Dosage schedules were developed based on previous experimental protocols and half-life studies. Control mice received sterile saline in the same volumes as NTM. Importins pull-down assay. […] Beads were boiled for 10 min in SDS loading buffer, and protein content was analyzed by immunoblotting with a panel of anti-importins alpha and beta antibodies and anti-GAPDH (Abcam) as a cellular protein control.
Six week old B6.129S7-Ldlrtm1Her/J female mice were purchased from Jackson Laboratories. […] Blood chemistries were determined in fasting mouse plasma using an automated chemistry analyzer in the Vanderbilt Clinical Research Center. Total cholesterol and triglycerides in liver and cholesterol in feces were analyzed by standard methods in the Lipid Core Laboratory. […] Cryostat sections of livers were stained with Oil-red-O. Atherosclerotic lesions and macrophages were analyzed in the aortic root by staining with Oil-red-O and MOMA-2, respectively. Average lesion area was determined using Imaging System KS300 2.0.

importin beta [4] = target: T1, importin beta; assay: Nuclear Transport Modifier/importin beta competition binding assay; parameters: whole cell extract from unstimulated human Jurkat T cells; endogenous in cells; host or cells: human Jurkat T cells, whole-cell extract; conditions: free non-biotinylated peptide 0-300 μM, Jurkat T cell extract
Experimental: Non-biotinylated SN50 peptide (at 0, 10, 30, 100 or 300 μM concentrations) was incubated overnight with 1 mg of human Jurkat T cell whole-cell extract at 4° C. Simultaneously, biotinylated SN50 peptide (10 nmols) was immobilized on high capacity Neutravidin beads at 4° C. overnight, then washed 3 times with PBS and 1 time with binding buffer to remove unbound biotinylated SN50. Binding mixture was precleared by centrifugation (16,000×g for 30 min at 4° C.) and transferred to a fresh tube containing washed high capacity Neutravidin beads complexed with immobilized biotinylated SN50 peptide. Immunoblot analysis of importin beta bound to beads was performed as described in the importins pull-down assay.

GAPDH [5] = target: T2, GAPDH (Homo sapiens, UniProt P04406); assay: Importins pull-down assay, HepG2 cell extract, control protein; format: binding; parameters: endogenous in cells; host or cells: human hepatoma HepG2 cells, starved overnight in 1% FBS, whole-cell extract; conditions: HepG2 cell extracts
T2 sequence (P04406 whole entry): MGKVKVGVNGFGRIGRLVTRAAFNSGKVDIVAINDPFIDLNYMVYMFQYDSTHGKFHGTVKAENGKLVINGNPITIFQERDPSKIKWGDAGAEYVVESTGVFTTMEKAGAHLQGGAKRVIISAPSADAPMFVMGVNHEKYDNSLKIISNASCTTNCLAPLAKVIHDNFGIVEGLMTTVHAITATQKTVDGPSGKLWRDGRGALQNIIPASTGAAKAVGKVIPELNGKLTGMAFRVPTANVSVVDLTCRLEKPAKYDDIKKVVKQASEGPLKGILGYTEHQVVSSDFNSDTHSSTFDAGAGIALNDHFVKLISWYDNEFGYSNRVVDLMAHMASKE
Experimental: as §2, with “control. […]” for “control.”

importin beta [6] = target: T1, importin beta; assay: Importins pull-down assay, HepG2 cell extract; format: binding; parameters: endogenous in cells; conditions: HepG2 cell extracts
Experimental: as §2, with “control. […]” for “control.”

GAPDH [7] = target: T2, GAPDH; assay: Importins pull-down assay, Jurkat T cell extract, control protein; format: binding; parameters: endogenous in cells; conditions: biotinylated peptide, Jurkat T cell lysate pull-down
Experimental: as §2

interaction with importin beta (importin beta [1]): did not react
Compound: CVQRKRQKLMPC (disulfide 1-12 (inferred)) [cN50.1]
interaction with importins alpha 1, 4, and 5 [2]: maintain reactivity | liver alanine and aspartate transaminases (ALT and AST) in plasma ([3]; 8 weeks): elevated levels | results vs mice given saline ([3]; control peptide, plasma cholesterol and triglycerides): not different | experimental endpoints (hypercholesterolemia) vs saline alone ([3]; non-cell penetrating control peptide in saline): did not differ significantly

interaction with importin beta (importin beta [1]): importin beta-binding function
Compound: AVLLALLAP (HOMO SAPIENS) [SSHR-2]

solubility (Solubility of peptides; depending on the method of synthesis and purification, read-out: soluble at levels): 2 to 40 mg/mL (≈ 0.635 to 12.7 mM)
Compound: CSCC[C@@H]1NC(=O)[C@H](CC(C)C)NC(=O)[C@H](CCCCN)NC(=O)[C@H](CCC(N)=O)NC(=O)[C@H](CCCNC(=N)N)NC(=O)[C@H](CCCCN)NC(=O)[C@H](CCCNC(=N)N)NC(=O)[C@H](CCC(N)=O)NC(=O)[C@H](C(C)C)NC(=O)[C@H](Cc2ccc(O)cc2)NC(=O)[C@@H](NC(=O)[C@@H]2CCCN2C(=O)[C@H](C)NC(=O)[C@H](CC(C)C)NC(=O)[C@H](CC(C)C)NC(=O)[C@H](C)NC(=O)[C@H](CC(C)C)NC(=O)[C@H](CC(C)C)NC(=O)[C@@H](NC(=O)[C@H](C)NC(=O)[C@@H]2CCCN2C(=O)[C@H](CC(C)C)NC(=O)[C@H](CC(C)C)NC(=O)[C@H](C)NC(=O)[C@@H](NC(=O)[C@H](C)NC(=O)[C@H](C)N)C(C)C)C(C)C)CSSC[C@@H](C(=O)O)NC(=O)[C@@H]2CCCN2C1=O [cSN50] (H-AAVALLPAVLLALLAPCYVQRKRQKLMPC-OH; disulfide 17-29; N-terminus and C-terminus assumed)

Continued, compound first:

Compound: CSCC[C@@H]1NC(=O)[C@H](CC(C)C)NC(=O)[C@H](CCCCN)NC(=O)[C@H](CCC(N)=O)NC(=O)[C@H](CCCNC(=N)N)NC(=O)[C@H](CCCCN)NC(=O)[C@H](CCCNC(=N)N)NC(=O)[C@H](CCC(N)=O)NC(=O)[C@H](C(C)C)NC(=O)[C@@H](NC(=O)[C@@H]2CCCN2C(=O)[C@H](C)NC(=O)[C@H](CC(C)C)NC(=O)[C@H](CC(C)C)NC(=O)[C@H](C)NC(=O)[C@H](CC(C)C)NC(=O)[C@H](CC(C)C)NC(=O)[C@@H](NC(=O)[C@H](C)NC(=O)[C@@H]2CCCN2C(=O)[C@H](CC(C)C)NC(=O)[C@H](CC(C)C)NC(=O)[C@H](C)NC(=O)[C@@H](NC(=O)[C@H](C)NC(=O)[C@H](C)N)C(C)C)C(C)C)CSSC[C@@H](C(=O)O)NC(=O)[C@@H]2CCCN2C1=O [cSN50.1] (H-AAVALLPAVLLALLAPCVQRKRQKLMPC-OH; disulfide 17-28; N-terminus and C-terminus assumed)
solubility (Solubility of peptides; read-out: solubility): 100 mg/mL (≈ 33.5 mM) | signs of infection or illness (ldlr−/− mice; 8 weeks of treatment): no overt signs of infection or illness | blood cell populations and blood chemistries (ldlr−/− mice; mouse, in vivo): did not reveal any significant changes | general susceptibility to environmental pathogens (ldlr−/− mice; mouse, in vivo): did not cause any apparent signs

Compound: VQRKRQKLMP (HOMO SAPIENS) [N50]
interaction with importin beta (importin beta [1]): did not react | interaction with importins alpha 1, 4, and 5 [2]: maintain reactivity

Compound: AAVALLPAVLLALLAPVQRKRQKLMP [SN50]
inhibition of biotinylated SN50 binding to importin beta (importin beta [4]): competitively inhibited | interaction with control protein GAPDH (GAPDH [5]): not with the control protein GAPDH | interaction with importin beta (importin beta [1]): interacted | interaction with importin beta (importin beta [6]): interacted | interaction with control cytoplasmic marker protein GAPDH (GAPDH [7]): not with the control cytoplasmic marker protein GAPDH | interaction with importins alpha 1, 4, and 5 [2]: interacted

Compound: AAVALLPAVLLALLAPCVQRDEQKLMPC (disulfide 17-28 (inferred)) [cSN50.1 Beta]
interaction with importins alpha 1, 4, and 5 [2]: did not react
